The subject of one series is maize. Briefly: Field trial, phytotoxicity to maize (post-emergence). How it is done:
(§1) The field experiments were carried out in plots of 8 to 10 m^2, and each experiment was carried out in 2 to 4 replications. After the crop plants had been sown, the test preparations were applied pre-emergence, or in the 2-6-leaf stage, using plot sprayers. The spray volume was 100-300 l water/ha; it was applied by means of flat-jet nozzles at a pressure of 2-3 bar. Evaluation was done by visual scoring. The effects on the crop plants or on the broad-leaved weeds/grass weeds were estimated in comparison with untreated control plots using a percentage scale (0-100%). After application, the plants were scored 3-4 times at intervals of approx. 14, 28, 42 days after application. The results represent averages over 2-4 replications. […] Anti-weed action should show efficacies of ≧60%. From sowing until the experiments were concluded, they were exposed to the natural weather conditions (precipitation, temperature, atmospheric humidity, insolation), as they are characteristic for the experimental sites.

A further series deals with Setaria faberi. In words: Field trial, action on grass weeds/broad-leaved weeds (post-emergence). The settings on record: 100 g a.i./ha. The format is in vivo. As for the experimental part:
as §1

A further series relates to Panicum minor. The series is described as above. The settings on record: 100 g a.i./ha. The format is in vivo. How it is done:
as §1

The test system of another series is Abutilon theophrastis. Described as above. Particulars: 100 g a.i./ha. Type of series: in vivo. How it is done:
as §1

Molecules are shown by their SMILES.

Experimental findings from patent US8748343B2, “Herbicide/safener combintions” (Bayer Cropscience AG, priority 1998, dated 2014) are described below.

Regarding `CCOC(=O)C1=NOC(c2ccccc2)(c2ccccc2)C1` [Safener II-9, Ethyl 5,5-diphenyl-2-isoxazoline-3-carboxylate], the “Phytotoxicity to maize [%] 14 dat” value with maize (field trial, 4-leaf stage (Table 11), 120 g a.i./ha, 14 days after treatment) came out at 0%; in the series on maize (field trial, 4-leaf stage, post-emergence, 100 g a.i./ha, 14 days after treatment), 0%; in the series with maize (field trial, mixture with sulfonylureas, post-emergence (Table 13), 120 g a.i./ha, 14 days after treatment) it was 0%. The “Phytotoxicity to maize [%] 42 dat” value in the series with maize (field trial, 4-leaf stage (Table 11), 120 g a.i./ha, 42 days after treatment) worked out at 0%; in the series with maize (field trial, mixture with sulfonylureas, post-emergence (Table 13), 120 g a.i./ha, 42 days after treatment), 0%. In addition, in the series on maize (field trial, 4-leaf stage, post-emergence, 100 g a.i./ha, 31 days after treatment), the “Phytotoxicity to maize [%] 31 dat” value is on record as 0%. Further, the “Phytotoxicity [%] Maize” value with maize (field trial, post-emergence (Table 12), 100 g a.i./ha) is reported as 0%. Moreover, the “Phytotoxicity [%] Setaria faberi” value with Setaria faberi is 0%. For the same molecule, in the series on Panicum minor, the “Phytotoxicity [%] Panicum minor” value came out at 0%. In the series on Abutilon theophrastis, the “Phytotoxicity [%] Abutilon theophrastis” value was determined as 0%.

Take `COc1cc(OC)nc(NC(=O)NS(=O)(=O)c2cc(NC=O)ccc2C(=O)N(C)C)n1` [Herbicide 2, N,N-Dimethyl-2-[3-(4,6-dimethoxypyrimidin-2-yl)ureido-sulfonyl]-4-formylaminobenzamide]: in the series with maize (maize, in vivo, 14 days), the “Phytotoxicity to maize [%] 14 dat” value worked out at 13%. In addition, the “Phytotoxicity to maize [%] 42 dat” value with maize (maize, in vivo, 42 days) is 7%.
